Source: ChEMBL document CHEMBL3885861, “Open TG-GATES”

Species on record: Rattus norvegicus
Test: Open TG-GATES - Regimen: Daily Repeat
Assay type: toxicity, organism-based, Sprague-Dawley
Set-up: regimen Daily Repeat, gender Male, age 6 weeks
Conditions: in vivo, po, 30 mg/kg, route gavage, dose level High; for APTT / Bas / Eos / Fbg / Hb / Ht / Lym / MCH / MCHC / MCV / Mono / Neu / PT / Plat / RBC / Ret / WBC: tissue Blood; for KIDNEY_L / KIDNEY_R / KIDNEY_TOTAL: tissue Kidney; for LIVER: tissue Liver; for A/G / ALP / ALT / AST / BUN / CRE / Ca / Cl / DBIL / GLC / IP / K / LDH / Na / PL / RALB / TBIL / TC / TG / TP / gamma-GTP: tissue Plasma

C=CCO [ALLYL ALCOHOL]
TERMINAL_BW (72 h, time 3 day): 229 g
APTT (72 h, time 3 day): 18.4 s
Bas (72 h, time 3 day): 0%
Eos (72 h, time 3 day): 0.8%
Fbg (72 h, time 3 day): 258.6 mg/dL
Hb (72 h, time 3 day): 13.4 g/dL
Ht (72 h, time 3 day): 39.4%
Lym (72 h, time 3 day): 80%
MCH (72 h, time 3 day): 20.9 pg
MCHC (72 h, time 3 day): 33.9%
MCV (72 h, time 3 day): 61.7 fL
Mono (72 h, time 3 day): 3.4%
Neu (72 h, time 3 day): 15.2%
PT (72 h, time 3 day): 11.7 s
Plat (72 h, time 3 day): 142.1 x10_4/uL
RBC (72 h, time 3 day): 639.6 x10_4/ul
Ret (72 h, time 3 day): 4.7%
WBC (72 h, time 3 day): 128.3 x10_2/uL
KIDNEY_L (72 h, time 3 day): 1 g
KIDNEY_R (72 h, time 3 day): 1 g
KIDNEY_TOTAL (72 h, time 3 day): 2 g
LIVER (72 h, time 3 day): 11.1 g
A/G (72 h, time 3 day): 1.5
ALP (72 h, time 3 day): 874.6 IU/L
ALT (72 h, time 3 day): 39.6 IU/L
AST (72 h, time 3 day): 71 IU/L
BUN (72 h, time 3 day): 13.6 mg/dL
CRE (72 h, time 3 day): 0.4 mg/dL
Ca (72 h, time 3 day): 10.5 mg/dL
Cl (72 h, time 3 day): 103.2 meq/L
DBIL (72 h, time 3 day): 0.058 mg/dL
GLC (72 h, time 3 day): 206.2 mg/dL
IP (72 h, time 3 day): 7.4 mg/dL
K (72 h, time 3 day): 3.5 meq/L
LDH (72 h, time 3 day): 221.2 IU/L
Na (72 h, time 3 day): 141.2 meq/L
PL (72 h, time 3 day): 125.4 mg/dL
RALB (72 h, time 3 day): 3 g/dL
TBIL (72 h, time 3 day): 0.1 mg/dL
TC (72 h, time 3 day): 73.2 mg/dL
TG (72 h, time 3 day): 59 mg/dL
TP (72 h, time 3 day): 5 g/dL
gamma-GTP (72 h, time 3 day): 1 IU/L
TERMINAL_BW ([…], time 7 day): 238.1 g
TERMINAL_BW ([…], time 14 day): 285 g
TERMINAL_BW ([…], time 28 day): 374.2 g
APTT ([…], time 7 day): 21.6 s
Bas ([…], time 7 day): 0%
Eos ([…], time 7 day): 0.8%
Fbg ([…], time 7 day): 334.8 mg/dL
Hb ([…], time 7 day): 14 g/dL
Ht ([…], time 7 day): 40.7%
Lym ([…], time 7 day): 74%
MCH ([…], time 7 day): 20.6 pg
MCHC ([…], time 7 day): 34.4%
MCV ([…], time 7 day): 60.2 fL
Mono ([…], time 7 day): 5.6%
Neu ([…], time 7 day): 18.2%
PT ([…], time 7 day): 13.1 s
Plat ([…], time 7 day): 146.5 x10_4/uL
RBC ([…], time 7 day): 676 x10_4/ul
Ret ([…], time 7 day): 3.1%
WBC ([…], time 7 day): 193.8 x10_2/uL
APTT ([…], time 14 day): 19.2 s
Bas ([…], time 14 day): 0%
Eos ([…], time 14 day): 0.8%
Fbg ([…], time 14 day): 250.6 mg/dL
Hb ([…], time 14 day): 13.7 g/dL
Ht ([…], time 14 day): 40%
Lym ([…], time 14 day): 70.2%
MCH ([…], time 14 day): 19.6 pg
MCHC ([…], time 14 day): 34.2%
MCV ([…], time 14 day): 57.3 fL
Mono ([…], time 14 day): 3.8%
Neu ([…], time 14 day): 24.8%
PT ([…], time 14 day): 12.4 s
Plat ([…], time 14 day): 192.6 x10_4/uL
RBC ([…], time 14 day): 698 x10_4/ul
Ret ([…], time 14 day): 5.4%
WBC ([…], time 14 day): 181.3 x10_2/uL
APTT ([…], time 28 day): 20.5 s
Bas ([…], time 28 day): 0%
Eos ([…], time 28 day): 1.2%
Fbg ([…], time 28 day): 218.6 mg/dL
Hb ([…], time 28 day): 15.2 g/dL
Ht ([…], time 28 day): 44.1%
Lym ([…], time 28 day): 78%
MCH ([…], time 28 day): 18.7 pg
MCHC ([…], time 28 day): 34.5%
MCV ([…], time 28 day): 54.3 fL
Mono ([…], time 28 day): 2.8%
Neu ([…], time 28 day): 17.2%
PT ([…], time 28 day): 12.1 s
Plat ([…], time 28 day): 107.4 x10_4/uL
RBC ([…], time 28 day): 813.2 x10_4/ul
Ret ([…], time 28 day): 2.8%
WBC ([…], time 28 day): 109.1 x10_2/uL
KIDNEY_L ([…], time 7 day): 1 g
KIDNEY_R ([…], time 7 day): 1.1 g
KIDNEY_TOTAL ([…], time 7 day): 2.1 g
KIDNEY_L ([…], time 14 day): 1.2 g
KIDNEY_R ([…], time 14 day): 1.2 g
KIDNEY_TOTAL ([…], time 14 day): 2.4 g
KIDNEY_L ([…], time 28 day): 1.3 g
KIDNEY_R ([…], time 28 day): 1.3 g
KIDNEY_TOTAL ([…], time 28 day): 2.6 g
LIVER ([…], time 7 day): 12.6 g
LIVER ([…], time 14 day): 14.4 g
LIVER ([…], time 28 day): 16.7 g
A/G ([…], time 7 day): 1.2
ALP ([…], time 7 day): 938.4 IU/L
ALT ([…], time 7 day): 195.4 IU/L
AST ([…], time 7 day): 610 IU/L
BUN ([…], time 7 day): 11.4 mg/dL
CRE ([…], time 7 day): 0.4 mg/dL
Ca ([…], time 7 day): 10.6 mg/dL
Cl ([…], time 7 day): 102.4 meq/L
DBIL ([…], time 7 day): 0.088 mg/dL
GLC ([…], time 7 day): 182.4 mg/dL
IP ([…], time 7 day): 7 mg/dL
K ([…], time 7 day): 3.7 meq/L
LDH ([…], time 7 day): 310.6 IU/L
Na ([…], time 7 day): 140.6 meq/L
PL ([…], time 7 day): 130.8 mg/dL
RALB ([…], time 7 day): 3 g/dL
TBIL ([…], time 7 day): 0.2 mg/dL
TC ([…], time 7 day): 72.6 mg/dL
TG ([…], time 7 day): 62.8 mg/dL
TP ([…], time 7 day): 5.6 g/dL
gamma-GTP ([…], time 7 day): 2.6 IU/L
A/G ([…], time 14 day): 1.3
ALP ([…], time 14 day): 758.4 IU/L
ALT ([…], time 14 day): 42.8 IU/L
AST ([…], time 14 day): 85.6 IU/L
BUN ([…], time 14 day): 14.2 mg/dL
CRE ([…], time 14 day): 0.4 mg/dL
Ca ([…], time 14 day): 10.7 mg/dL
Cl ([…], time 14 day): 101.8 meq/L
DBIL ([…], time 14 day): 0.07 mg/dL
GLC ([…], time 14 day): 202.6 mg/dL
IP ([…], time 14 day): 6.7 mg/dL
K ([…], time 14 day): 3.5 meq/L
LDH ([…], time 14 day): 234.8 IU/L
Na ([…], time 14 day): 141 meq/L
PL ([…], time 14 day): 140.8 mg/dL
RALB ([…], time 14 day): 3.4 g/dL
TBIL ([…], time 14 day): 0.1 mg/dL
TC ([…], time 14 day): 70.2 mg/dL
TG ([…], time 14 day): 69.6 mg/dL
TP ([…], time 14 day): 5.9 g/dL
gamma-GTP ([…], time 14 day): 1.4 IU/L
A/G ([…], time 28 day): 1.2
ALP ([…], time 28 day): 615.8 IU/L
ALT ([…], time 28 day): 39.2 IU/L
AST ([…], time 28 day): 64 IU/L
BUN ([…], time 28 day): 16.8 mg/dL
CRE ([…], time 28 day): 0.5 mg/dL
Ca ([…], time 28 day): 10.5 mg/dL
Cl ([…], time 28 day): 102.6 meq/L
DBIL ([…], time 28 day): 0.068 mg/dL
GLC ([…], time 28 day): 220.6 mg/dL
IP ([…], time 28 day): 5.6 mg/dL
K ([…], time 28 day): 3.5 meq/L
LDH ([…], time 28 day): 188.2 IU/L
Na ([…], time 28 day): 139.6 meq/L
PL ([…], time 28 day): 135.6 mg/dL
RALB ([…], time 28 day): 3.3 g/dL
TBIL ([…], time 28 day): 0.1 mg/dL
TC ([…], time 28 day): 65.6 mg/dL
TG ([…], time 28 day): 98.6 mg/dL
TP ([…], time 28 day): 6 g/dL
gamma-GTP ([…], time 28 day): 1 IU/L
